Data reported in the supplement of paper PMC13380429.

Key:
Settings in all cases: 72 h
Calu-3 [1] = test: cell viability relative to DMSO; higher = less toxic
Caco-2 [2] = test: as above
Vero E6 [3] = test: as above
U2OS [4] = test: as above
Calu-3 [5] = test: relative viability EC50 (midpoint between 100% and the lowest measured viability); higher = less toxic
Caco-2 [6] = test: as above
Vero E6 [7] = test: as above
U2OS [8] = test: as above
Calu-3 [9] = test: drug sensitivity score (DSS) for viability; higher = more toxic; extreme values may be limits of the assay
Caco-2 [10] = test: as above
Vero E6 [11] = test: as above
U2OS [12] = test: as above
HepG2 [13] = test: cell viability relative to DMSO; higher = less toxic
HepG2 [14] = test: relative viability EC50 (midpoint between 100% and the lowest measured viability); higher = less toxic
HepG2 [15] = test: drug sensitivity score (DSS) for viability; higher = more toxic; extreme values may be limits of the assay

Structure (SMILES)	cell viability (Calu-3 [1]; 1 nM) [%]	cell viability (Calu-3 [1]; 10 nM) [%]	cell viability (Calu-3 [1]; 100 nM) [%]	cell viability (Calu-3 [1]; 1000 nM) [%]	cell viability (Calu-3 [1]; 10000 nM) [%]	cell viability (Caco-2 [2]; 1 nM) [%]	cell viability (Caco-2 [2]; 10 nM) [%]	cell viability (Caco-2 [2]; 100 nM) [%]	cell viability (Caco-2 [2]; 1000 nM) [%]	cell viability (Caco-2 [2]; 10000 nM) [%]	cell viability (Vero E6 [3]; 1 nM) [%]	cell viability (Vero E6 [3]; 10 nM) [%]	cell viability (Vero E6 [3]; 100 nM) [%]	cell viability (Vero E6 [3]; 1000 nM) [%]	cell viability (Vero E6 [3]; 10000 nM) [%]	cell viability (U2OS [4]; 1 nM) [%]	cell viability (U2OS [4]; 10 nM) [%]	cell viability (U2OS [4]; 100 nM) [%]	cell viability (U2OS [4]; 1000 nM) [%]	cell viability (U2OS [4]; 10000 nM) [%]	relative viability EC50 (Calu-3 [5]) [µM]	relative viability EC50 (Caco-2 [6]) [µM]	relative viability EC50 (Vero E6 [7]) [µM]	relative viability EC50 (U2OS [8]) [µM]	drug sensitivity score (Calu-3 [9])	drug sensitivity score (Caco-2 [10])	drug sensitivity score (Vero E6 [11])	drug sensitivity score (U2OS [12])	cell viability (HepG2 [13]; 1 nM) [%]	cell viability (HepG2 [13]; 10 nM) [%]	cell viability (HepG2 [13]; 100 nM) [%]	cell viability (HepG2 [13]; 1000 nM) [%]	cell viability (HepG2 [13]; 10000 nM) [%]	relative viability EC50 (HepG2 [14]) [µM]	drug sensitivity score (HepG2 [15])
NCCS [cysteamine]	87.7	100	98.3	99.1	102	102	108	104	100	93.8	106	101	99.8	94.8	99.9	102	102	95.1	99.7	97.4	> 10	> 10	> 10	> 10	0	0	0	0	–	–	–	–	–	–	–
COc1c2occc2c(OC)c2c(=O)cc(C)oc12 [khellin]	–	–	–	–	–	97.1	110	94.9	107	102	105	99.8	94.2	99.7	98.5	103	98.6	99.5	98.8	96.3	–	> 10	> 10	> 10	–	0	0	0	96.2	99.2	96.6	89	90.1	> 10	0.3
O=C(O)c1ccc(-n2nc(-c3ccccc3O)nc2-c2ccccc2O)cc1 [deferasirox]	99.7	100	97.4	104	72.2	110	92.5	104	96	58.8	104	104	106	101	56.9	103	102	99	93.5	47.1	–	–	–	2.16	0.9	2.7	2.1	3.9	110	93.2	106	91.6	31.3	2.17	5.2
COc1ccc(-n2c(SCc3nc(-c4ccc(C)cc4)no3)nnc2-c2ccncc2)cc1 [JW-74]	95.1	106	109	107	70.8	111	114	110	100	86.9	108	105	107	88.7	68.2	96.4	98.3	97	96	81.4	–	> 10	–	> 10	0.9	0.1	3	1	99.7	101	96.2	95.3	93.3	> 10	0
Cc1cn([C@@H]2C[C@@H](O)[C@H](CO)O2)c(=O)[nH]c1=O [telbivudine]	118	92.2	105	107	114	92.6	108	99.8	106	116	98.8	97.6	92.3	85	99.3	97.8	103	96.8	99.1	105	> 10	> 10	> 10	> 10	0	0	0	0	–	–	–	–	–	–	–
COc1ccc2nc3ccc(Cl)cc3c(SCCCN)c2c1	–	–	–	–	–	94.9	99.7	93.9	93.5	99.2	99.7	93.7	93.4	93.2	109	98.8	101	98.4	104	98.8	–	> 10	> 10	> 10	–	0	0	0	98.6	106	98.8	106	101	> 10	0
CC[C@@](C)(Nc1ccnc(-c2c[nH]c3ncccc23)n1)C(=O)NCC(F)(F)F [decernotinib]	–	–	–	–	–	97.4	97.3	99	95.4	109	100	100	105	99.1	107	96.5	101	94.2	98.3	98	–	> 10	> 10	> 10	–	0	0	0	94.2	101	96.6	107	109	> 10	0
C[C@]12C[C@H](O)[C@H]3[C@@H](CCC4=CC(=O)CC[C@@]43C)[C@@H]1CC[C@@H]2C(=O)CO [corticosterone]	101	101	96.4	97.2	93.7	92.8	114	114	101	91.5	96.1	91.6	101	90.6	87.8	94.9	100	92.3	96.1	97.9	> 10	> 10	> 10	> 10	0	0	0	0	–	–	–	–	–	–	–
O=C(Cc1cccc(OC(F)(F)F)c1)Nc1ccc(CCCCc2nnc(NC(=O)Cc3ccccn3)s2)nn1 [CB-839]	107	102	89.5	89.1	86.6	94.9	98.7	101	105	106	95.7	93.9	89.5	65.2	65.3	99.6	105	92.6	75.9	82	> 10	> 10	–	> 10	1.5	0	7.1	4.7	96.7	89.2	78.1	66.1	71.4	–	8.4
CN(C)C(=O)c1cc2cnc(Nc3ccc(N4CCNCC4)cn3)nc2n1C1CCCC1 [ribociclib]	99.7	90.3	94	95.3	73.1	92.1	95.9	96.1	95	90.3	95.5	98.8	98	94.4	84	92.8	96.9	92.7	98.4	90.4	–	> 10	> 10	> 10	1.8	0	0.6	0	95.1	101	87.5	78	71.8	–	4.5
CC(C)n1c(/C=C/[C@@H](O)C[C@@H](O)CC(=O)O)c(-c2ccc(F)cc2)c2ccccc21 [fluvastatin]	99	96.7	96.6	105	65.4	92.4	103	101	89.1	80	100	100	103	91.2	37.5	99.6	109	95.7	101	45.1	–	> 10	2.05	3.24	1.3	1.7	4.9	2.9	97	104	99.2	90.7	71.3	–	2.5
Clc1ccc(C(Cn2ccnc2)OCc2ccc(Sc3ccccc3)cc2)c(Cl)c1 (centres undefined) [fenticonazole]	100	88.6	97	101	85.7	102	94.8	95	91.3	73.3	109	108	106	107	97.8	101	97.8	100	99.1	96	> 10	–	> 10	> 10	0.1	1.7	0	0	116	108	114	110	68.5	–	1
CN1CCN(c2cc(-c3ccccc3)nc(N)n2)CC1	–	–	–	–	–	92.8	99	95.1	91.8	93	98.9	95.4	90.5	94.8	103	96.8	98.3	97.6	98	102	–	> 10	> 10	> 10	–	0	0	0	87.5	105	87.8	95.6	116	> 10	0
Cc1nc2ccccn2c(=O)c1CCN1CCC(C(=O)c2ccc(F)cc2)CC1 [pirenperone]	–	–	–	–	–	103	101	99.5	90.6	106	92.6	101	95.6	100	97.2	106	106	103	99.2	103	–	> 10	> 10	> 10	–	0	0	0	110	113	108	99.2	90.2	> 10	0
CC(C)[C@@H]1CC[C@@H](C)C[C@@H]1P(=O)(c1ccccc1)c1ccccc1 [DPO-1]	95.9	98.4	96.7	93.7	94.1	100	102	98.7	96.6	78	112	105	110	96.6	105	98.5	100	97.3	102	93.7	> 10	> 10	> 10	> 10	0	1.2	0	0	–	–	–	–	–	–	–
